Laboratory results taken from patent publication US12384775B2, “Pyrimid-2-yl-pyrazole compounds as IRAK inhibitors” (Rigel Pharmaceuticals, Inc., priority 2022, dated 2025).

Columns and labels:
IRAK4 = target: T1, IRAK4 (Homo sapiens, UniProt Q9NWZ3); test: IRAK4 ADP-Glo kinase assay; type: biochemical; conditions: for IC50: n >= 3
T1 construct: purchased Signalchem I12-10G-20
T1 sequence (Q9NWZ3 1-460): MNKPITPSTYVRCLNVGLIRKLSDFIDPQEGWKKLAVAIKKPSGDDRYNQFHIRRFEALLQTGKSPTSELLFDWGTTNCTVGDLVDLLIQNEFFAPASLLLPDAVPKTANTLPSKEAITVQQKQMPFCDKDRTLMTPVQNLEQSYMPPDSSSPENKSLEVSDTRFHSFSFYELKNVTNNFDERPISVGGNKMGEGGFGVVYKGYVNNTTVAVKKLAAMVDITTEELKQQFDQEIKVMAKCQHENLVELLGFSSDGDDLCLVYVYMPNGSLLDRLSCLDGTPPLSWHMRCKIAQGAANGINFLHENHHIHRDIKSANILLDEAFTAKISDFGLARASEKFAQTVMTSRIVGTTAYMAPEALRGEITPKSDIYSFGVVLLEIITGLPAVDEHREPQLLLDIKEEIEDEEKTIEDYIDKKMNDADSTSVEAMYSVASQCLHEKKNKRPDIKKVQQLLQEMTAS
Procedure: The ADP-Glo™ reagents were thawed at ambient temperature. The Kinase Detection Reagent was prepared by mixing kinase detection buffer with the lyophilized kinase detection substrate, and set aside.
A stock volume of 5× Reaction Kinase Buffer was made with a final concentration of 100 mM MgCl2, 200 mM Tris-HCl, and 0.5 mg/ml of BSA, in distilled H2O with a final pH7.4. A 2× working stock volume of Reaction Kinase Buffer was made containing a final concentration of 100 μM DTT.
The components of IRAK4 Enzyme were thawed on ice. Diluted IRAK4 in 1× Kinase Reaction Buffer (diluted from 2× buffer) was prepared at […]. A 250 μM working stock ATP Assay Solution was prepared in 1× Kinase Reaction Buffer (diluted from 2× buffer).
The compound was diluted in DMSO from 250 µM in 4-fold series dilutions for 8 points. Then diluted 1:5 in 2× Reaction Buffer in a 96 well plate. 1.0 μl was transferred to a 384 well plate in duplicate. […] 1 μl of 1 mg/ml stock solution of MBP substrate was added NOTE: MBP can be combined with ATP mix with equal volume and then added at 2 μl/well. Final reaction volume was 5 μl. The plate was centrifuged and the reaction mixture was incubated at room temperature for 60 minutes or at 30° C. for 30 minutes.
The reaction was terminated and the remaining ATP was depleted by adding 5 μl of ADP-Glo™ Reagent. The 384-well plate was centrifuged and then the reaction mixture was incubated for another 40 minutes at ambient temperature.
10 μl of the Kinase Detection Reagent was added. The plate was centrifuged and then the reaction mixture was incubated for another 30 minutes at ambient temperature.
The 384-well reaction plate was read using the WALLAC plate reader (Luminescence 0.1s).

[1] = Plasma protein binding, equilibrium dialysis (RED), rat; type: in vitro ADME; conditions: for recovery at 5 μM / fraction unbound at 5 μM: Rat plasma, drug 5 μM; for fraction unbound at 5 μM: read-out: % bound (converted); for Free Fraction in Whole Blood Assay, Rat: plasma free fraction
Procedure: (§1) Brain and plasma drug binding were performed by equilibrium dialysis using the Rapid Equilibrium Dialysis (RED) device. Briefly, 300 μL of plasma or brain homogenate (1 brain/3 buffer) containing drug (5 μM) was equilibrated (4-18 h) against 500 μL of buffered saline. After incubation, the concentration of drug in plasma/brain homogenate and buffer was determined by LC-MS/MS.
(§2) Recovery is calculated by determining the total amount of drug in 50 μL of plasma and 50 μL buffer after the incubation and comparing that value to the amount of drug in 50 μL of a plasma sample that was not incubated. For the protein binding assay, drug was added to the plasma and this plasma was added to one side of the dialysis device while buffer was added to the other. After filing the plasma chamber of the equilibrium device, a 50 μL aliquot of plasma was mixed with 50 μL of buffer and then quenched with stop reagent. Drug recovery=(Drug buffer+Drug plasma)/(drug in initial plasma)

[2] = Plasma protein binding, equilibrium dialysis (RED), monkey; type: in vitro ADME; conditions: drug 5 μM; for fraction unbound at 5 μM: read-out: % bound (converted); for recovery at 5 μM: value above 100% due to experimental error (footnote)
Procedure: as §1, §2

[3] = Plasma protein binding, equilibrium dialysis (RED), mouse; type: in vitro ADME; conditions: drug 5 μM; for recovery at 5 μM: low due to hydrolysis; for fraction unbound at 5 μM: read-out: % bound (converted)
Procedure: as §1, §2

[4] = test system: LPS Induced TNF-α in Human Blood; test: LPS induced TNF-α in human whole blood; type: cell-based; conditions: LPS 0.5 ng/ml overnight, read-out: Human Whole Blood Assays (IC5050), TNFα LPS
Procedure: (§3) To assess the effect of whole blood on the potency of compound I-1 and Comparison-1, the compounds were evaluated for their inhibitory potential on TLR dependent cytokine release in human blood. Freshly drawn peripheral blood from healthy volunteers was incubated with test compound and stimulated overnight with LPS or Gardiquimod. The serum was isolated after centrifugation and TNF-α and IL-6 were measured by ELISA.
Whole blood of healthy volunteers was collected in Vacutainer containing Sodium Heparin and plate 40 μL of blood to each well. Compound was serially diluted in DMSO from 2 mM in 3-fold dilutions, and then diluted 1:100 in media with 10% FBS. 50 μL of 2× compound was added per well in duplicate to each well and incubate for one hour. 10 μL LPS was added to each well at a final concentration of 0.5 ng/ml and allow cells to incubate overnight.
100 μL of PBS was added to each well and centrifuged for 10 minutes at 1000 RPM. 25 μL of supernatant were taken, and TNF-α was measured on Luminex Flexmap 3d.

[5] = test system: TLR dependent cytokine release in human blood; test: Human whole blood assays, average of IL-6 Gard and TNFα LPS; type: cell-based; conditions: read-out: Human Whole Blood Assays (IC5050), Average
Procedure: as §3

Compound | IC50 (IRAK4) [nM] | EC50 (IRAK4; read-out: IRAK4 ADP-Glo Kinase, 8 pt EC50) [nM] | recovery at 5 μM [1] [%] | fraction unbound at 5 μM [1] | Free Fraction in Whole Blood Assay, Rat [1] [%] | fraction unbound at 5 μM [2] | recovery at 5 μM [2] [%] | recovery at 5 μM [3] [%] | fraction unbound at 5 μM [3] | IC50 [4] [nM] | IC50 [5] [nM]
CCO[C@H]1CC[C@H](n2cc(NC(=O)c3csc(-c4cn[nH]c4)n3)c(-c3ncccn3)n2)CC1 [Compound I-1, N-(1-((1r,4r)-4-ethoxycyclohexyl)-3-(pyrimidin-2-yl)-1H-pyrazol-4-yl)-2-(1H-pyrazol-4-yl)thiazole-4-carboxamide] | 7 ± 4 | 7 | 73.9 | 0.037 | 3.7 | 0.017 | 104 | 23.6 | 0.085 | 224 | 174
CCO[C@H]1CC[C@H](n2cc(NC(=O)c3csc(-c4cn[nH]c4)n3)c(-c3nc(F)ccc3F)n2)CC1 [Comparison-1, reference compound] | 6 ± 6 | – | 68.3 | 0.007 | 0.7 | 0.003 | 71.6 | 10 | 0.022 | 1400 | 1400
